Results: publication PMC6436327, “Inhibition of Cytochrome P450 Activities by Sophora flavescens Extract and Its Prenylated Flavonoids in Human Liver Microsomes” (Evidence-based Complementary and Alternative Medicine : eCAM, 2019)
Where two headings read alike, the source gives them in different places.

Legend:
Assay type in all cases: biochemical
CYP2B6 = target: T1, CYP2B6 (Homo sapiens, UniProt P20813); experiment: bupropion 6-hydroxylation, LC-MS/MS; settings: microsomes
T1 construct: native enzyme in pooled human liver microsomes, bupropion 6-hydroxylation probe
T1 sequence (P20813 1-491): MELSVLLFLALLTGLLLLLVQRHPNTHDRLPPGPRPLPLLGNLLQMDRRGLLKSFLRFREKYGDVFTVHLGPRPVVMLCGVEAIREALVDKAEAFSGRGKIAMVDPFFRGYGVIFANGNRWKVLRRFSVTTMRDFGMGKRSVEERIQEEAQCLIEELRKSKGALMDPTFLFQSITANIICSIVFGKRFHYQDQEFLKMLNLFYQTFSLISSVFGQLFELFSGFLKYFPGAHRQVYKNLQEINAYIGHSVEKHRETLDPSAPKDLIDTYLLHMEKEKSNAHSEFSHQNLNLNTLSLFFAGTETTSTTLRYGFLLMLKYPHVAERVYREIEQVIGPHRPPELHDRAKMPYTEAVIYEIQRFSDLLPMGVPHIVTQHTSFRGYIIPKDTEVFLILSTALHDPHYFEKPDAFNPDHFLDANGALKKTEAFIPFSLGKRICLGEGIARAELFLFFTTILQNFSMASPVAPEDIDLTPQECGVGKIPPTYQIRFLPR
Description: bupropion 6-hydroxylation, LC-MS/MS on CYP2B6

CYP2C9 = target: T2, CYP2C9 (Homo sapiens, UniProt P11712); experiment: diclofenac hydroxylation, LC-MS/MS; settings: microsomes
T2 construct: methods text says tolbutamide
T2 sequence (P11712 whole entry): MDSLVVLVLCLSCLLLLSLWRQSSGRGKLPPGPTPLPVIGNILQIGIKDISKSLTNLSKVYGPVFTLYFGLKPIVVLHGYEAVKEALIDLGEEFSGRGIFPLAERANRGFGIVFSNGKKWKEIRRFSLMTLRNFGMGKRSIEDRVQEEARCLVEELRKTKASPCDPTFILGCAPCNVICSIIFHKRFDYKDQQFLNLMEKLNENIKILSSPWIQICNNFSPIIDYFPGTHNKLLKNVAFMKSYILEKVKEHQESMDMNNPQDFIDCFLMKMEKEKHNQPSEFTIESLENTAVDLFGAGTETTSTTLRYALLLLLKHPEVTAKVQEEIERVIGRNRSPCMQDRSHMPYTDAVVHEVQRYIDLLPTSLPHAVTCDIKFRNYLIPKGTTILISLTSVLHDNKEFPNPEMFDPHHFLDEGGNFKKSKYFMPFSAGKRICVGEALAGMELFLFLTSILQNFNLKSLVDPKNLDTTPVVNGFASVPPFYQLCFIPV
Description: diclofenac hydroxylation, LC-MS/MS on CYP2C9

CYP2D6 = target: T3, CYP2D6 (Homo sapiens, UniProt P10635); experiment: dextromethorphan to dextrorphan, LC-MS/MS; settings: microsomes, read-out: IC50 value / Kushenol A
T3 construct: native enzyme in pooled human liver microsomes, dextromethorphan O-demethylation probe
T3 sequence (P10635 whole entry): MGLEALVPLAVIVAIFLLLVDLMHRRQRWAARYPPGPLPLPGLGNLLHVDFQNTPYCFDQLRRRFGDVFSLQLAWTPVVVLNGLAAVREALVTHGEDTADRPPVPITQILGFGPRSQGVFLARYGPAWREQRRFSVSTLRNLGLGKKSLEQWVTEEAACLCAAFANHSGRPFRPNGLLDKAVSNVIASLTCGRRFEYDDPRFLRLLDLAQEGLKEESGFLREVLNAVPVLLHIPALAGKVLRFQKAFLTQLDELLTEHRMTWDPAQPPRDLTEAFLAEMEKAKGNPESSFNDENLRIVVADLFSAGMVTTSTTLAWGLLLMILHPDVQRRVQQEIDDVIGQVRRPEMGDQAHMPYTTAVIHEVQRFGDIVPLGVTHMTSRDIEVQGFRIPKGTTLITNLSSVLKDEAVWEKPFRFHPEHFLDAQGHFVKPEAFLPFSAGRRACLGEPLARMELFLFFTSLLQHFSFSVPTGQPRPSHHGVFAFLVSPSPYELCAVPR
Description: dextromethorphan to dextrorphan, LC-MS/MS on CYP2D6

CYP2A6 = target: T4, CYP2A6 (Homo sapiens, UniProt P11509); experiment: coumarin 7-hydroxylation, LC-MS/MS; settings: human liver microsomes; no preincubation; NADPH-generating system, pH 7.4, 37°C; read-out: IC50 value / Kushenol A
T4 construct: native enzyme in pooled human liver microsomes, coumarin 7-hydroxylation probe
T4 sequence (P11509 1-494): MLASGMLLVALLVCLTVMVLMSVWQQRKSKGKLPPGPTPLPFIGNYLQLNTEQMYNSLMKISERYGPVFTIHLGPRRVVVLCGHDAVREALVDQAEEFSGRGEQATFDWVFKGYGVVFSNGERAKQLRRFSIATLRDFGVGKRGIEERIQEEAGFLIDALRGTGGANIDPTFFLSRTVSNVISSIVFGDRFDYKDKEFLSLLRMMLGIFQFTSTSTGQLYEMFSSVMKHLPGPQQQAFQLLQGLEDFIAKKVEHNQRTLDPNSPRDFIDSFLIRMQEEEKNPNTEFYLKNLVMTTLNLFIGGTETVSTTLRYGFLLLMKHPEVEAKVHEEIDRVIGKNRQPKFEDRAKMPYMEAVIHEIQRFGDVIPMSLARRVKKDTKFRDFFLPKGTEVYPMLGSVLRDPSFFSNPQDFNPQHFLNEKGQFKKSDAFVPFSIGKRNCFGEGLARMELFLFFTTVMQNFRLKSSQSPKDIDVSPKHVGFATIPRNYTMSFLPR
Description: coumarin 7-hydroxylation, LC-MS/MS on CYP2A6

CYP1A2 = target: T5, CYP1A2 (Homo sapiens, UniProt P05177); experiment: phenacetin to acetaminophen, LC-MS/MS; settings: microsomes
T5 construct: native enzyme in pooled human liver microsomes, phenacetin O-deethylation probe
T5 sequence (P05177 2-516): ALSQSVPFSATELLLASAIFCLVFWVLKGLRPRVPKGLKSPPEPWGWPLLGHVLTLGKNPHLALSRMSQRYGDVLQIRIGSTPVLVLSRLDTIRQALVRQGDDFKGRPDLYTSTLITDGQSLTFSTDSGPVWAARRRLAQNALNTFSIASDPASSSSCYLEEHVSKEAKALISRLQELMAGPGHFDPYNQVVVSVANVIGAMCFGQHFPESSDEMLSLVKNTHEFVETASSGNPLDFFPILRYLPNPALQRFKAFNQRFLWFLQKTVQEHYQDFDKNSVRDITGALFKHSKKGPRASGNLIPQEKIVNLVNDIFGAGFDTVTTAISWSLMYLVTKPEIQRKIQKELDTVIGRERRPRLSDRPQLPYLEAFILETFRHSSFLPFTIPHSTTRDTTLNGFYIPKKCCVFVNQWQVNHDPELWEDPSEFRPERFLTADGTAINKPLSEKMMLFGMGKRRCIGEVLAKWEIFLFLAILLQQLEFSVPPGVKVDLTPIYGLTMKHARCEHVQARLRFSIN
Description: phenacetin to acetaminophen, LC-MS/MS on CYP1A2

CYP2C19 = target: T6, CYP2C19 (Homo sapiens, UniProt P33261); experiment: S-mephenytoin 4-hydroxylation, LC-MS/MS; settings: microsomes, read-out: IC50 value / Kushenol A
T6 construct: native enzyme in pooled human liver microsomes, S-mephenytoin 4-hydroxylation probe (methods text misprints CYP2C18)
T6 sequence (P33261 whole entry): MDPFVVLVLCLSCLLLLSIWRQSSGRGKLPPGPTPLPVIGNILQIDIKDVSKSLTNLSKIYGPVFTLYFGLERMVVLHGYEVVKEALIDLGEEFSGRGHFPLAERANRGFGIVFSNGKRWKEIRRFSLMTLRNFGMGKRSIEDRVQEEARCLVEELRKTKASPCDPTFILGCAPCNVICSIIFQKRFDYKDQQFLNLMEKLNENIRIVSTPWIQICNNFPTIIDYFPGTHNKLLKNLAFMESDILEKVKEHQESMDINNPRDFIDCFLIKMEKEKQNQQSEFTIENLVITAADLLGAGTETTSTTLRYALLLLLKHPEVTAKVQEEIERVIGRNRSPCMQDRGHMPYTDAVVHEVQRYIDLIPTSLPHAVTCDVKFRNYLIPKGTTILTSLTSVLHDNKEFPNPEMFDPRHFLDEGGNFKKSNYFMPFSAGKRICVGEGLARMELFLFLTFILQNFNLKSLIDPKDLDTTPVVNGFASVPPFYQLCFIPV
Description: S-mephenytoin 4-hydroxylation, LC-MS/MS on CYP2C19

CYP3A4 [1] = target: T7, CYP3A4 (Homo sapiens, UniProt P08684); experiment: midazolam […]'-hydroxylation, LC-MS/MS; set-up: native enzyme in pooled human liver microsomes, midazolam 1'-hydroxylation probe (CYP3A5 may contribute); settings: microsomes, read-out: IC50 value / Kushenol A
T7 sequence (P08684 2-503): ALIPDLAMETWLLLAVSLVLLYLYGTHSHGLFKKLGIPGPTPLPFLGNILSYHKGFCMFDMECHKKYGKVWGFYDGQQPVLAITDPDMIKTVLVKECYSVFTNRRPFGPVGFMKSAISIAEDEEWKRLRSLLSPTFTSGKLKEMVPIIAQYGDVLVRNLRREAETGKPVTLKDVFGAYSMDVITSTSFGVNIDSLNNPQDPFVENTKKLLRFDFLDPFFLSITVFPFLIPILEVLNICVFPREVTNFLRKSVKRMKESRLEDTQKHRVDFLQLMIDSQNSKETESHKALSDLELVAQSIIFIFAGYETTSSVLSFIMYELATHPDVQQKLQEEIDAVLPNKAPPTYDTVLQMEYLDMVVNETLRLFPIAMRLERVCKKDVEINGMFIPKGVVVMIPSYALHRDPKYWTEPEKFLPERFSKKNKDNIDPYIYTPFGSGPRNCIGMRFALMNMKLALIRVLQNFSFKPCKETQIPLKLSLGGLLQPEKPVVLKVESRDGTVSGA

CYP2C8 = target: T8, CYP2C8 (Homo sapiens, UniProt P10632); experiment: rosiglitazone hydroxylation, LC-MS/MS; settings: microsomes
T8 construct: methods text says paclitaxel
T8 sequence (P10632 1-490): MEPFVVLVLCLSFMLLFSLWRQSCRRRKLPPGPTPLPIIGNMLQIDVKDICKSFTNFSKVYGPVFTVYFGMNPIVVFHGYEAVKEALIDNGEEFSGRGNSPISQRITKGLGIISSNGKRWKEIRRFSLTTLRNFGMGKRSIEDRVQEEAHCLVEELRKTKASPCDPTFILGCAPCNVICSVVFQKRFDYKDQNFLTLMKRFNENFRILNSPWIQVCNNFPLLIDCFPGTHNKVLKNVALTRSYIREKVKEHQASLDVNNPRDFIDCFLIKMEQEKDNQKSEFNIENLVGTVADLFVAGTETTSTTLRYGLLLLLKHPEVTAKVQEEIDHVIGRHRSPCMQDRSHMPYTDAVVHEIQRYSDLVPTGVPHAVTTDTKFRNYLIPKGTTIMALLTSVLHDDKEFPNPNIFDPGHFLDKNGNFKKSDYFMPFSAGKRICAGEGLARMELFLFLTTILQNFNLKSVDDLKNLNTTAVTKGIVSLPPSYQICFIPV
Description: rosiglitazone hydroxylation, LC-MS/MS on CYP2C8

CYP3A4 [2] = target: T7, CYP3A4; experiment: time-dependent inactivation, midazolam […]'-hydroxylation, LC-MS/MS; set-up: recombinant, baculovirus-insect cell expressed, commercial (BD Gentest)
CYP3A4 [3] = target: T7, CYP3A4; experiment: as above; set-up: native enzyme in pooled human liver microsomes, midazolam 1'-hydroxylation probe (CYP3A5 may contribute); settings: microsomes
[4] = read-out: IC50 value / Kushenol A
[5] = read-out: IC50 value / Kushenol C
[6] = read-out: IC50 value / Kushenol I
[7] = read-out: IC50 value / Leachianone A
[8] = read-out: IC50 value / Sophoraflavone G

Row | IC50 (CYP2B6; [4]) [µM] | IC50 (CYP2C9; [4]) [µM] | IC50 (CYP2D6) [µM] | IC50 (CYP2A6) [µM] | IC50 (CYP1A2; [4]) [µM] | IC50 (CYP2C19) [µM] | IC50 (CYP3A4 [1]) [µM] | IC50 (CYP2C8; [4]) [µM] | IC50 (CYP2C9; [5]) [µM] | IC50 (CYP1A2; [5]) [µM] | IC50 (CYP2C9; [6]) [µM] | KI (inactivation) (CYP3A4 [2]) [µM] | KI (inactivation) (CYP3A4 [3]) [µM] | IC50 (CYP2C8; [6]) [µM] | IC50 (CYP2B6; [7]) [µM] | IC50 (CYP2C8; [7]) [µM] | IC50 (CYP2B6; [8]) [µM] | IC50 (CYP2C9; [8]) [µM] | IC50 (CYP1A2; [8]) [µM] | IC50 (CYP2C8; [8]) [µM] | SMILES
1 | > 50 | > 50 | > 50 | > 50 | > 50 | > 50 | > 50 | > 50 | – | – | – | – | – | – | – | – | – | – | – | – | C=C(C)[C@H](CC=C(C)C)Cc1c(O)cc(O)c2c1O[C@H](c1ccccc1O)CC2=O [Kushenol A]
2 | > 50 | – | > 50 | – | – | > 50 | > 50 | > 50 | 9.3 | 5 | – | – | – | – | – | – | – | – | – | – | C=C(C)[C@H](CC=C(C)C)Cc1c(O)cc(O)c2c(=O)c(O)c(-c3ccc(O)cc3O)oc12 [Kushenol C]
3 | > 50 | – | > 50 | – | > 50 | > 50 | > 50 | – | – | – | 7.35 | 0.88 | 0.24 | 0.67 | – | – | – | – | – | – | C=C(C)[C@H](CC=C(C)C)Cc1c(O)cc(OC)c2c1O[C@H](c1ccc(O)cc1O)[C@@H](O)C2=O [Kushenol I]
4 | > 50 | > 50 | > 50 | – | > 50 | > 50 | > 50 | > 50 | – | – | – | – | – | – | – | – | – | – | – | – | C=C(C)[C@H](CC=C(C)C)Cc1c(O)c(CC=C(C)C)c(O)c2c1O[C@H](c1ccc(O)cc1O)[C@@H](O)C2=O [Kushenol M]
5 | – | > 50 | > 50 | – | > 50 | > 50 | > 50 | – | – | – | – | – | – | – | 5.74 | 0.75 | – | – | – | – | C=C(C)[C@H](CC=C(C)C)Cc1c(O)cc(O)c2c1O[C@H](c1ccc(O)cc1OC)CC2=O [Leachianone A]
6 | – | – | > 50 | > 50 | – | – | > 50 | – | – | – | – | – | – | – | – | – | 2.42 | 1.25 | 2.26 | 0.32 | C=C(C)[C@H](CC=C(C)C)Cc1c(O)cc(O)c2c1O[C@H](c1ccc(O)cc1O)CC2=O [Sophoraflavone G]
